From BindingDB's records for doi:10.1016/j.bmc.2005.12.063 (Kyushu Institute of Technology, 2006)
Peptide text beside a SMILES is read from it.

Tests used:
Experiment in all cases: HDAC Enzyme Activity Assay
Details in all cases: pH 8; 37 °C
Histone deacetylase 4 = Histone deacetylase 4 (Homo sapiens, UniProt P56524)
Histone deacetylase 6 = target: T1, Histone deacetylase 6 (Mus musculus, UniProt Q9Z2V5)
T1 sequence (Q9Z2V5 whole entry): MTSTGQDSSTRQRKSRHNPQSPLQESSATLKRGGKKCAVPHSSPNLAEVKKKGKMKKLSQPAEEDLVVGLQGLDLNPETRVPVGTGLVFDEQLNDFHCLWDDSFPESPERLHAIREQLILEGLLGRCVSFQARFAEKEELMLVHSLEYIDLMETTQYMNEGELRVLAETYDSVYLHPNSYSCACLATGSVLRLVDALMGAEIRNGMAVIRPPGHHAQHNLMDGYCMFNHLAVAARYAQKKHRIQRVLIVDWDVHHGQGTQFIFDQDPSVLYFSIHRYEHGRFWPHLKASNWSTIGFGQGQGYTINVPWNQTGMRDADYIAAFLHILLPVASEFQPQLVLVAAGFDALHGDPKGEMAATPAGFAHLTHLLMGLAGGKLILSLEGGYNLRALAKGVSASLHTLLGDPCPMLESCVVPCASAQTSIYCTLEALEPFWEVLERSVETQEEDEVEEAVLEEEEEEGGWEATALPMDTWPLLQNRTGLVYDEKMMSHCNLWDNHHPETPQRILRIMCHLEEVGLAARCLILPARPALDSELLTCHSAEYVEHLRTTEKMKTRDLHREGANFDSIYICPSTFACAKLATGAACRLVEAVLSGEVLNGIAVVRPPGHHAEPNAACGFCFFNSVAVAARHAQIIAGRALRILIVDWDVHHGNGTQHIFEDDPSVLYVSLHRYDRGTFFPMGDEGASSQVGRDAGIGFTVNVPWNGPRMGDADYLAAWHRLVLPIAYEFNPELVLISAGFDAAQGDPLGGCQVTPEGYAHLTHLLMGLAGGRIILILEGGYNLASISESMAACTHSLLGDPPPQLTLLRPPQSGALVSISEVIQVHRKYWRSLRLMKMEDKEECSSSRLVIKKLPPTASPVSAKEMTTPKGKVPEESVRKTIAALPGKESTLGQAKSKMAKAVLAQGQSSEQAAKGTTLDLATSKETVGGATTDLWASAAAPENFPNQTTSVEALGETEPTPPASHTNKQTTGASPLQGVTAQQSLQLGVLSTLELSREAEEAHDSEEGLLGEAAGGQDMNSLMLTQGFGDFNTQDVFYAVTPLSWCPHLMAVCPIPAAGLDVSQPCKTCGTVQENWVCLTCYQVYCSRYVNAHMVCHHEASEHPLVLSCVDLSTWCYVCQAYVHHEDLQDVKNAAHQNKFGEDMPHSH

Histone deacetylase 1 = Histone deacetylase 1 (Homo sapiens, UniProt Q13547)
Chain of Histone deacetylase 1 (Q13547 whole entry): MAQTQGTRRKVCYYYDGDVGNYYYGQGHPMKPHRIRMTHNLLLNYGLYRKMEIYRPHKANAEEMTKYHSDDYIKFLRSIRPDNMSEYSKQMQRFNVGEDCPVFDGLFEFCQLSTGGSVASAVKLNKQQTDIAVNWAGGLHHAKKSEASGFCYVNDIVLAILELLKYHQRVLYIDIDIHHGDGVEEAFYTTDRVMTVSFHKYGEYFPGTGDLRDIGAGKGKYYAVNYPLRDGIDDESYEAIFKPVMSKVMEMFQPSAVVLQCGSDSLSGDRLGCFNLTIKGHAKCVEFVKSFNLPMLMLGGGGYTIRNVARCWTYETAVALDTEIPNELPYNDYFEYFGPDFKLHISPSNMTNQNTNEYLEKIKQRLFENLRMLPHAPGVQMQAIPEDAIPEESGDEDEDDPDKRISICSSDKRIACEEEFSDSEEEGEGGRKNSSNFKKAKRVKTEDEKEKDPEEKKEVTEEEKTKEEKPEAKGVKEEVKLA

Chain of Histone deacetylase 4 (P56524 whole entry): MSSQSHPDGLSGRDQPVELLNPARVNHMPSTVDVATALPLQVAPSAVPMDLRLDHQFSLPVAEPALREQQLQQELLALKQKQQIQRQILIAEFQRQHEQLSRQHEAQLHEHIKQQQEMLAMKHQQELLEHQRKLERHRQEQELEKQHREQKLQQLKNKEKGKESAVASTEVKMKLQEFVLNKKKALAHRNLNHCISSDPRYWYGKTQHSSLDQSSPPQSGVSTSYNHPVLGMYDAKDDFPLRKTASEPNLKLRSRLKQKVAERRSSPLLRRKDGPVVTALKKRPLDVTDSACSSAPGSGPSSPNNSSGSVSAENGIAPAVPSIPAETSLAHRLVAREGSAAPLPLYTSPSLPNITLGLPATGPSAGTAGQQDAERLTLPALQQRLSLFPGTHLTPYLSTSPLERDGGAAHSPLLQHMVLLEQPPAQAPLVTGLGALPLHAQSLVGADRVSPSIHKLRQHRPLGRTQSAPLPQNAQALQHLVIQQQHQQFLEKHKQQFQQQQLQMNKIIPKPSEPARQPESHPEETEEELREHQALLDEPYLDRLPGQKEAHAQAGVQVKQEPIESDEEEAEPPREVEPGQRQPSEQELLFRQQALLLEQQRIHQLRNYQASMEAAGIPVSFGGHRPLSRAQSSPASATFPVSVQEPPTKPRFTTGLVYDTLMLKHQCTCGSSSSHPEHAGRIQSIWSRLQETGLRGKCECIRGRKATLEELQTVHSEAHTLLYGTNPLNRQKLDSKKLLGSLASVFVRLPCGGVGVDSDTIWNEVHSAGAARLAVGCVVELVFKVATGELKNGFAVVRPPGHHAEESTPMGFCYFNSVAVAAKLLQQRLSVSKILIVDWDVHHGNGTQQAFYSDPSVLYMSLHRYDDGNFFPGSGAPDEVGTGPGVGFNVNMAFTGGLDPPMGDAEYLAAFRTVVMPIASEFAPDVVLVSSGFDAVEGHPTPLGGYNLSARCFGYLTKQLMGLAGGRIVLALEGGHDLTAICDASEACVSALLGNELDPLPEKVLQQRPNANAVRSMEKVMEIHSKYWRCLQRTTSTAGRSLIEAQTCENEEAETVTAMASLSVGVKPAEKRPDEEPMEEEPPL

Row | SMILES | IC50 (Histone deacetylase 4) [µM] | IC50 (Histone deacetylase 6) [µM] | IC50 (Histone deacetylase 1) [µM]
1 | CC1(C)NC(=O)[C@H](CCCCCC(=O)CBr)NC(=O)[C@H]2CCCN2C(=O)[C@H](Cc2ccccc2)NC1=O [(3S,9S,14aR)-9-benzyl-3-(7-bromo-6-oxoheptyl)-6,6-dimethyl-tetradecahydropyrrolo[1,2-a][,,,]cyclododecane-1,4,7,10-tetrone] | 0.0595 |  | 
2 | CC1(C)NC(=O)[C@H](CCCCCC(O)CO)NC(=O)[C@H]2CCCN2C(=O)[C@H](Cc2ccccc2)NC1=O (stereo partly drawn) [(3S,9S,14aR)-9-benzyl-3-(6,7-dihydroxyheptyl)-6,6-dimethyl-tetradecahydropyrrolo[1,2-a][,,,]cyclododecane-1,4,7,10-tetrone] | > 100 | > 100 | > 100
3 | C=CCCCCC[C@@H]1NC(=O)[C@H]2CCCN2C(=O)[C@H](Cc2ccccc2)NC(=O)C(C)(C)NC1=O [(3S,9S,14aR)-9-benzyl-3-(hept-6-en-1-yl)-6,6-dimethyl-tetradecahydropyrrolo[1,2-a][,,,]cyclododecane-1,4,7,10-tetrone] (HELM PEPTIDE1{[Aib].F.[dP].[C=CCCCCC[C@H](N[*:1])C(=O)[*:2]]}$PEPTIDE1,PEPTIDE1,1:R1-4:R2$$$V2.0) | > 100 | > 100 | > 100
4 | CC1(C)NC(=O)[C@H](CCCCCC(=O)CO)NC(=O)[C@H]2CCCN2C(=O)[C@H](Cc2ccccc2)NC1=O [(3S,9S,14aR)-9-benzyl-3-(7-hydroxy-6-oxoheptyl)-6,6-dimethyl-tetradecahydropyrrolo[1,2-a][,,,]cyclododecane-1,4,7,10-tetrone] | 0.0604 | 0.887 | 0.223
5 | CC1(C)NC(=O)[C@H](CCCCCC=O)NC(=O)[C@H]2CCCN2C(=O)[C@H](Cc2ccccc2)NC1=O [6-[(3S,9S,14aR)-9-benzyl-6,6-dimethyl-1,4,7,10-tetraoxo-tetradecahydropyrrolo[1,2-a][,,,]cyclododecan-3-yl]hexanal] | 1.29 | 14.1 | 4.33
6 | CC1(C)NC(=O)[C@H](CCCCCC2CO2)NC(=O)[C@H]2CCCN2C(=O)[C@H](Cc2ccccc2)NC1=O (stereo partly drawn) [(3S,9S,14aR)-9-benzyl-6,6-dimethyl-3-[5-(oxiran-2-yl)pentyl]-tetradecahydropyrrolo[1,2-a][,,,]cyclododecane-1,4,7,10-tetrone] | 4.05 | > 100 | 4.69
7 | CC(=O)CCCCC[C@@H]1NC(=O)[C@H]2CCCN2C(=O)[C@H](Cc2ccccc2)NC(=O)C(C)(C)NC1=O [(3S,9S,14aR)-9-benzyl-6,6-dimethyl-3-(6-oxoheptyl)-tetradecahydropyrrolo[1,2-a][,,,]cyclododecane-1,4,7,10-tetrone] | 0.29 | 3.7 | 1.08
